Entries after “also recorded” stand apart in the source; their conditions may differ.
Columns and labels:
hCD95 = assay: Cleavage of recombinant human CD95 proteins/peptides by ELANE (SDS-PAGE, mass spectrometry); assay type: biochemical; details: recombinant aa 1-173 and aa 212-335
Experimental: Identification of ELANE cleavage sites in CD95 by mass spectrometry. Recombinant human C-terminal CD95 (aa 212-335, MyBioSource, 10 μg) or recombinant N-terminal CD95 (aa 1-173, ThermoFisher Scientific, 10 μg) were digested with human ELANE (0.1 μg) for 2 h at 37° C., and reactions were stopped with SDS-PAGE loading buffer. Proteins were run on 20% SDS-PAGE gels, stained with Coomassie Blue (ThermoFisher Scientific), and bands were excised for mass spectrometric analyses. Proteins were extracted from excised bands.
Analysis of recombinant peptides by mass spectrometry. Recombinant peptides (10 μM) corresponding to aa 214-([…])-231 (SEQ ID NO:6) or 317-([…])-335 (SEQ ID NO:7) of human CD95 (ThermoFisher Scientific) were incubated with ELANE (0.1-0.2 μM) at 37° C. for 15-30 min. Reactions were stopped with 0.1% formic acid.

CD95 = CD95 cleavage in cancer cells by western blotting; assay type: cell-based
Experimental: FIGS. 1A-1K. ELANE cleaves CD95 to selectively kill cancer cells. (A): Heatmap summary of ELANE's effects on survival, stress, and apoptosis pathways in cancer cells and healthy cells. (B-C): Cancer cells were treated with ELANE (100 nM) and CD95 cleavage was assessed by western blotting using anti-N-terminal (B) or anti-C-terminal antibodies (C). *, lower molecular weight CD95 fragment. (D): Cancer cells or non-cancer cells were transduced to overexpress CD95 proteins, and effects on ELANE-mediated apoptosis were quantified by ANXAS at 30 min. n=2/group. See FIG. 1I for transduction and CD95 over-expression. (E): Cleavage of recombinant human CD95 N-terminal (aa 1-173) or C-terminal (aa 212-335) proteins by ELANE was assessed by SDS-PAGE and Coomassie blue staining. (F): Bands from (E) were digested with trypsin and analyzed by mass spectrometry to identify putative ELANE cleavage sites (i.e., peptides with non-tryptic ends). Major non-tryptic peptides were quantified by ion chromatograms. (G): Schematic of ELANE cleavage sites in CD95. […] (H): Cleavage of recombinant peptides corresponding to aa 214-231 and aa 317-335 in CD95 by ELANE was monitored by mass spectrometry. […] Effect of Dynasore on cancer cell killing capability of ELANE (measured by calcein-AM). n=6/group. […]

cancer cells = assay: ELANE internalization by cancer cells and effect of endocytosis inhibitor; assay type: cell-based; details: cancer cell lysates, 30 mins
Experimental: FIGS. 1A-1K. ELANE cleaves CD95 to selectively kill cancer cells. (A): Heatmap summary of ELANE's effects on survival, stress, and apoptosis pathways in cancer cells and healthy cells. (B-C): Cancer cells were treated with ELANE (100 nM) and CD95 cleavage was assessed by western blotting using anti-N-terminal (B) or anti-C-terminal antibodies (C). *, lower molecular weight CD95 fragment. (D): Cancer cells or non-cancer cells were transduced to overexpress CD95 proteins, and effects on ELANE-mediated apoptosis were quantified by ANXAS at 30 min. n=2/group. See FIG. 1I for transduction and CD95 over-expression. (E): Cleavage of recombinant human CD95 N-terminal (aa 1-173) or C-terminal (aa 212-335) proteins by ELANE was assessed by SDS-PAGE and Coomassie blue staining. (F): Bands from (E) were digested with trypsin and analyzed by mass spectrometry to identify putative ELANE cleavage sites (i.e., peptides with non-tryptic ends). Major non-tryptic peptides were quantified by ion chromatograms. (G): Schematic of ELANE cleavage sites in CD95. […] (H): Cleavage of recombinant peptides corresponding to aa 214-231 and aa 317-335 in CD95 by ELANE was monitored by mass spectrometry. (I): Cancer cells or non-cancer cells were treated with fluorescein-labeled ELANE for 10 min and uptake was visualized by immunofluorescence. (J): ELANE catalytic activity in cancer cell lysates following exposure to ELANE for 30 mins in the presence and absence of Dynasore (60 μM endocytosis inhibitor). Effect of Dynasore on cancer cell killing capability of ELANE (measured by calcein-AM). n=6/group. (K): Cancer cells or non-cancer cells were transduced to overexpress various CD95 proteins, and cell viability in the absence of ELANE was determined by calcein-AM. n=10/group. *, p<0.05 Student's t-test.

ELANE: neutrophil elastase, a serine protease released by human PMNs
cleavage of CD95 N- or C-terminal domain (hCD95): preferentially cleaved the C-terminal domain; also recorded: degrades the C-terminal domain of purified CD95
loss of full-length CD95 after cleavage (CD95): did not result in loss of full-length CD95
CD95 cleavage in cancer cells (CD95; ELANE 100 nM): cleaved CD95 in all cancer cells tested
catalytic activity of internalized ELANE (cancer cells): retained its catalytic activity
